The test system of one test is B10 cells. In kind it is cell-based, human.
A further test concerns VTII and Bcl-2. The experiment in a line: Far Western blotting of VTII/Bcl-2 complex formation (B10 cell extract, biotinylated VTII). Type of test: binding, human. The following applies: extract of Bcl-2-expressing B10 cells, biotinylated VTII, in the presence of NWGRI.

Take NWGRI: the “induction of apoptotic cell death by VTII” value with B10 cells is “suppressed”. Further, in the test with VTII and Bcl-2, the “complex formation of VTII and Bcl-2” value is “interrupted the complex formation of VTII and Bcl-2 in a dose dependent manner”.

(Values after US20040121398A1 (priority 2000, published 2004).)
